Measurements published in patent publication US6506417B1, “Composition and process for reducing bacterial citrus canker organisms” (FMC Technologies, Inc., priority 2001, dated 2003).

Experiments:
[1] = system: Xanthomonas campestris pv. vesicatoria; settings: 200 μg/ml; cited from earlier work
[2] = system: X. axonopodis pv. citrumelo; assay: Dose-response study, 1 minute exposure to peracetic acid dilutions; assay type: cell-based
Procedure: Four strains of X. axonopodis pv. citrumelo were obtained from the Florida Department of Citrus and propagated in Nutrient Broth (Difco) at 22° C. with agitation for 48 to 72 hours. Cells were pelleted at 5,000 rpm/16 minutes, washed with Butterfield's Phosphate (pH 7.2) and resuspended in approximately 10% of the initial culture volume with Butterfield's Phosphate in order to concentrate the cells 10×. This final concentrate was used as the inoculum for the dose-response study. FMC VigorOx Liquid Sanitizer and Disinfectant (5% peracetic acid) and VigorOx SP-15 Antimicrobial Agent (15% peracetic acid) were diluted to final peracetic acid concentrations of 0 ppm (control), 5 ppm, 10 ppm, 20 ppm, 30 ppm, 40 ppm, 50 ppm, 60 ppm, 70 ppm, and 80 ppm with distilled water. Each variable was dispensed in 9.9 ml aliquots in sterile test tubes.
A 0.1 ml aliquot of the inoculum was added to each peracetic acid variable, shaken, and allowed to remain exposed to the solution for 1 minute. […]
Data summaries of trials performed on each product are expressed in the following tables. […] The initial inoculum was determined to contain 2.9×10^11 cfu/ml X. axonopodis, and the initial level of X. axonopodis exposed to each concentration of peracetic acid was determined to be 2.9×10^9 cfu/ml.

SMILES: CC(=O)OO [peroxyacetic acid]
- level of eradication [1]: acceptable level of eradication comparable to approved chlorine treatments
- reduction of X. axonopodis ([2]; 30 parts per million peroxyacetic acid, and above): > 99.9%
- significant reduction of X. axonopodis ([2]; greater than 10 but less than 20 parts per million peroxyacetic acid): > 1 log10 cfu/ml
